Data set [1] concerns the target T1, human ether-à-go-go-related Gene (hERG) channel (Homo sapiens, UniProt Q12809).
T1 construct: ChanTest (contract assay)
The experiment in a line: non-GLP manual patch clamp hERG assay (ChanTest). It counts as cell-based. Particulars: data not shown. On the procedure:
Syk kinase mode of inhibition studies, including parameters described in Fig 1, were conducted on the LC3000 platform by Caliper Life Sciences (Hopkinton, MA) according to standard protocols developed by the supplier. […] Non-kinase enzyme assays and GPCR, ion channel, and transporter binding assays were run by CEREP (France). Non-GLP manual patch clamp hERG assays were run by ChanTest (Cleveland, Ohio). Vivid® Assay kits (Life Technologies) were used to measure the cytochrome P450 inhibition of the compound against CYP3A, CYP2C9, CYP2C19, CYP2D6, and CYP1A2, as described.
(The patch-clamp technique gives a direct electrical read-out from membranes.)

In another data set the target is Flt4_h (Homo sapiens, UniProt P35916). Nature of the data set: SelectScreen kinase assay. It counts as biochemical.
Chain of Flt4_h (P35916 25-1363): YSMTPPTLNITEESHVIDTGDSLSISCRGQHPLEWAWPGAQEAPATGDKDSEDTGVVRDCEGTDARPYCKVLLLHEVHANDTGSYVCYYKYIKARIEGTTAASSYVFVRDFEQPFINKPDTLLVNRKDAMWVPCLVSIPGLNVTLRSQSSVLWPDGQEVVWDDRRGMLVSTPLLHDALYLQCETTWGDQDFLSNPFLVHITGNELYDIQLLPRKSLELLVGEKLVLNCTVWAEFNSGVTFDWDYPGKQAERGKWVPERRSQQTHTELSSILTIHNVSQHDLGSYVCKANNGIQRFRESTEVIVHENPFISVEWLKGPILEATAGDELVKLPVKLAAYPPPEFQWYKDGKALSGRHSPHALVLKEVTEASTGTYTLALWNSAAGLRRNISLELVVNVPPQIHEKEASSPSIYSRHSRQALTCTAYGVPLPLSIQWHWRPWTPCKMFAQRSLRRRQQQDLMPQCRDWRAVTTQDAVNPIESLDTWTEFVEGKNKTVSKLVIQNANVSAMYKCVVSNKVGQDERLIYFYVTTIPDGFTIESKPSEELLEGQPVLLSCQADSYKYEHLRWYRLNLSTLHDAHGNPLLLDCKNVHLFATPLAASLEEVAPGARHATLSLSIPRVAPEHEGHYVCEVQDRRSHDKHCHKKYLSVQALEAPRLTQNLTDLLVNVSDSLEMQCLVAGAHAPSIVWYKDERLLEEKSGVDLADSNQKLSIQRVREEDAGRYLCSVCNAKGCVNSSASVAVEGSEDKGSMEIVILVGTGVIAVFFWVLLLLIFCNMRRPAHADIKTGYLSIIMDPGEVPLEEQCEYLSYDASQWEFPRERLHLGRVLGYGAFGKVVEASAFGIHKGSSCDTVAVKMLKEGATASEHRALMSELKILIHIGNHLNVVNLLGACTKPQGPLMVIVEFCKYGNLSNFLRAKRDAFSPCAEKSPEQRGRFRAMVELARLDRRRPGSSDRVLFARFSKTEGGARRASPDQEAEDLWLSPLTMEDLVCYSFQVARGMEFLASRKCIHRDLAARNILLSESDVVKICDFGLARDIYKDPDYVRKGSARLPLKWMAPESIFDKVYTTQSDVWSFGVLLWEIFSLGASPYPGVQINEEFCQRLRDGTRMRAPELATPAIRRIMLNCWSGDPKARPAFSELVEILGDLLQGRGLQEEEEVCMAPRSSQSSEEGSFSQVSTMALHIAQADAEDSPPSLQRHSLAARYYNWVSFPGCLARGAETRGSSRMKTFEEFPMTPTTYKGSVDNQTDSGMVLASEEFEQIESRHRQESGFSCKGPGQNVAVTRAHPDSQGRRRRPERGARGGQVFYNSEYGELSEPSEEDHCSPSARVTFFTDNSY
For data set [2], the system named is Tel-Syk expressing BaF3 cells. Nature of the data set: Tel-Syk BaF3 viability assay (growth factor-independent growth). It counts as cell-based, murine. The settings on record: Mus musculus; Tel-Syk BaF3, absence of IL-3. On the procedure: HEK293 T-REx™ (Life Technologies, Grand Island, NY) stably transfected with human TEL-Syk (cloned as described prior section DNA constructs) were plated on black poly-D-lysine coated 96-well plates (BD Biosciences, San Diego, CA) in culture media containing tetracycline-free fetal bovine serum (Clontech, MountainView, CA) for 16 hours in a tissue culture incubator. Tel-Syk expression was induced for 6 hours in fresh growth media containing 1 μg/ml tetracycline (Sigma Chemicals, St. Louis, MO). Plates were preincubated with CC-509 for 90 minutes, fixed immediately with 4% formaldehyde in 1X PBS for 20 min at room temperature, and washed/permeabilized 5-times with PBS containing 0.1% Triton X-100. Plates were blocked with Odyssey Blocking Buffer for 90 minutes at room temperature and incubated overnight at 4°C on a rotating platform with rabbit phospho-Syk (1:1000) and mouse V5 (1:2500) primary antibodies diluted in Odyssey Blocking Buffer. […] Viability of BaF/3 cells expressing Tel-Syk grown in the absence of murine IL-3 was measured using Cell-Titer Glo reagent (Promega, Madison, WI), as described by supplier.

The target in a further data set is T2, Ret_V804L_h (Homo sapiens, UniProt P07949, V804L).
T2 construct: purchased Life Technologies (Invitrogen) SelectScreen, Z'-LYTE / Adapta
Nature of the data set: SelectScreen kinase assay. It counts as biochemical. Particulars: KM ATP, read-out: % control.

The target of the next data set is T3, CK2-alpha2_h (Homo sapiens, UniProt P19784).
T3 construct: purchased Life Technologies (Invitrogen) SelectScreen, Z'-LYTE / Adapta
T3 sequence (P19784 whole entry): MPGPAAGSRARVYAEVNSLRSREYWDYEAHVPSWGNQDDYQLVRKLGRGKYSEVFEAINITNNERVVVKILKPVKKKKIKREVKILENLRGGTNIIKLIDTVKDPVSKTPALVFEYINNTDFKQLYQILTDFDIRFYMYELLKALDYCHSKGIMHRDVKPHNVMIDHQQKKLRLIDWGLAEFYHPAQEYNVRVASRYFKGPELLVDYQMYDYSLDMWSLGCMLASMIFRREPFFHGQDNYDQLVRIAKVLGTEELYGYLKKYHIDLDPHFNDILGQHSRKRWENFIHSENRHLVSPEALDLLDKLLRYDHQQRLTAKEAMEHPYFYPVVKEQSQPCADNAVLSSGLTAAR
The experiment in a line: SelectScreen kinase assay. It counts as biochemical. The settings on record: KM ATP, read-out: % control.

The target of the next data set is T4, KDR (Homo sapiens, UniProt P35968).
T4 construct: purchased Life Technologies PV3660
T4 sequence (P35968 20-1356): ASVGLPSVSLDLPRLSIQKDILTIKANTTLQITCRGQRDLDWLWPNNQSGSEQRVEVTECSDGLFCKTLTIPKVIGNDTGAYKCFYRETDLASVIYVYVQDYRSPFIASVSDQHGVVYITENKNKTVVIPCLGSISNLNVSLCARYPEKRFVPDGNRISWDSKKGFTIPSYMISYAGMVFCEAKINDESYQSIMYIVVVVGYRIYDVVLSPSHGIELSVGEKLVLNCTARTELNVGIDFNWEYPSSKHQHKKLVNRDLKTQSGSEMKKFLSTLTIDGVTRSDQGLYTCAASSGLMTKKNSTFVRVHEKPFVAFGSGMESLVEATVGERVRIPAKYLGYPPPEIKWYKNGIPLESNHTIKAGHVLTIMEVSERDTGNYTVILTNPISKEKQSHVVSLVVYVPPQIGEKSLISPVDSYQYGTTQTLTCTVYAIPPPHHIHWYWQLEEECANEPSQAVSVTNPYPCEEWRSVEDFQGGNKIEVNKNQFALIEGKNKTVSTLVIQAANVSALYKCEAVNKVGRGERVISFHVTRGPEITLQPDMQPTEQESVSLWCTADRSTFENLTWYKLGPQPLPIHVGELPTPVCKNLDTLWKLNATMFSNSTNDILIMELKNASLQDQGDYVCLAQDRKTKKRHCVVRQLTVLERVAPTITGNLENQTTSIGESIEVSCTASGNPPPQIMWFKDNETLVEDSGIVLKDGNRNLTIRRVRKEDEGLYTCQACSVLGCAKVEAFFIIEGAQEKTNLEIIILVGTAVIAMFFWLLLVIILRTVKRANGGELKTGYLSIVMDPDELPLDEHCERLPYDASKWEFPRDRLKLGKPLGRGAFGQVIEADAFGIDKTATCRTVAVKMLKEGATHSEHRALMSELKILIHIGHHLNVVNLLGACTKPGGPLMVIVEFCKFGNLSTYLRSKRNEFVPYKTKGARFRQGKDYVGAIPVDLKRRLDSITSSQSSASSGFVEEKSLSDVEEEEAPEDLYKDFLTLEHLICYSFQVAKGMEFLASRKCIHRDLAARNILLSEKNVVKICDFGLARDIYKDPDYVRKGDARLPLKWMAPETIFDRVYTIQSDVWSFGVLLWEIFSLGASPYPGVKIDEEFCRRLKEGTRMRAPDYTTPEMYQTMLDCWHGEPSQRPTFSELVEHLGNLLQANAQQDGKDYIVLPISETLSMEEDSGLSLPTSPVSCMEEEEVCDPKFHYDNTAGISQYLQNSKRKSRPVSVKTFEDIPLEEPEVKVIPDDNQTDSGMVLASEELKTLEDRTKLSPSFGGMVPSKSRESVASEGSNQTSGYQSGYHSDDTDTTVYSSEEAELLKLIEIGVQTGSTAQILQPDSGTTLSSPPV
Nature of the data set: KDR HTRF assay. Particulars: in-house, mean ± SD. It counts as biochemical. On the procedure:
CC-509 was prepared at a concentration of 1.5 mM in DMSO followed by 3-fold dilutions in Greiner […] polypropylene plates. A 1:4 dilution of compounds by 8 μL/well transfer from the polypropylene plates to 24 μL/well Assay Buffer (50 mM HEPES pH 7.6, 1 mM DTT, 10 mM MgCl2, 0.01% Triton X-100, 0.01% BSA and 0.1 mM EDTA) in Costar 3573 384 well black plates was then performed. Kinase (13 μL/well of 7.7 ng/ml KDR (Life Technologies, Grand Island, NY PV3660) in Assay Buffer) or Assay Buffer only (background controls) were added to Costar 3573 384-well black plates and compound (2 μL/ well) was added from the 1:4 dilution plate. […] Time resolved fluorescence was read in assay plates on a PerkinElmer EnVision. […] The IC50 value was determined as described in the data fitting section below.
For the TEL-Syk assay, the intensity values for the 700 and 800 channel were exported as text files in ActivityBase (IDBS, Guildford, UK) to derive the ratios that reflect kinase activity. […] For the JAK2 HEL and Ramos NFAT β-lactamase assays, the fluorescence values obtained at 460 nm and 530 nm were exported into ActivityBase to calculate response ratios. […] Evans blue dye extravasation was expressed as mean ± SEM and % inhibition for the test article groups was normalized to the cromolyn positive control. […] Data is expressed as mean ± SEM of each group with n = 6–12. […]
(In general: Time-resolved FRET reads energy transfer from a long-lived donor to a nearby acceptor.)

Data set [3] can be described thus: preclinical toxicology studies, myelosuppression in male rats. It counts as in vivo, rat.

Structures are written as SMILES. Where “and” joins values, the source holds several entries; their conditions need not be identical. Equal entries are not always repeated.

T1 sequence (Q12809 whole entry): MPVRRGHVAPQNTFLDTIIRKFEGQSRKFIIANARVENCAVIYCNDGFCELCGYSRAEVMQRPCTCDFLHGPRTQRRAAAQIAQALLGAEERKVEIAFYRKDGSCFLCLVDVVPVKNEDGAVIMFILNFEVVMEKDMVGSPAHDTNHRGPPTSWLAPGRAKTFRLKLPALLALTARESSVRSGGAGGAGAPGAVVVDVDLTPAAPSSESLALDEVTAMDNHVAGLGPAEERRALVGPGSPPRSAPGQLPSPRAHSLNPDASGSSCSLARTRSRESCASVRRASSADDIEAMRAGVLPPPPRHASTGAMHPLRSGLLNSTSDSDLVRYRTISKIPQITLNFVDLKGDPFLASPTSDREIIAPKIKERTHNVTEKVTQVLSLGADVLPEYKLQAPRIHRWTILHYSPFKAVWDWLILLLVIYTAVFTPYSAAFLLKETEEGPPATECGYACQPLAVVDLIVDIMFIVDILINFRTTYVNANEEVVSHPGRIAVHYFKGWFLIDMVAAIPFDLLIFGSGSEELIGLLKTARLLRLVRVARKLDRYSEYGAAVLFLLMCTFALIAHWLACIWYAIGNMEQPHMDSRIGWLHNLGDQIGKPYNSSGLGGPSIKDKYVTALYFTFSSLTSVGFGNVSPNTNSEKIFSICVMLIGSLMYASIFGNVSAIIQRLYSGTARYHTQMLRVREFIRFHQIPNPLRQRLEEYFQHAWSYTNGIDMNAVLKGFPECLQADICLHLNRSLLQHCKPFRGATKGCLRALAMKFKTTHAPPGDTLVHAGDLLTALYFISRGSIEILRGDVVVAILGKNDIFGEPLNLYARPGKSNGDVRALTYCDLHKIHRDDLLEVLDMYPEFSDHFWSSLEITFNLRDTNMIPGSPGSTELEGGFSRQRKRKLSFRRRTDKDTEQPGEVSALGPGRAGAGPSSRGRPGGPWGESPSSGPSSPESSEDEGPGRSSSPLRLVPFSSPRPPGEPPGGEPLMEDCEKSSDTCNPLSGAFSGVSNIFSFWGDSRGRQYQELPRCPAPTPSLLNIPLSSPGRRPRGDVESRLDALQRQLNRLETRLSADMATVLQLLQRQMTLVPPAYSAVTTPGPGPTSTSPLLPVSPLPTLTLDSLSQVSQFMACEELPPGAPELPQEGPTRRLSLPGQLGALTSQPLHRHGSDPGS

Turning to `c1cc(CC2CCOCC2)n2nc(Nc3ccc4c(NC5CCOCC5)n[nH]c4c3)nc2c1` [CC-509, [3-(2H-3,4,5,6-tetrahydropyran-4-ylamino)(1H-indazol-6-yl)][5-(2H-3,4,5,6-tetrahydropyran-4-ylmethyl)(2H-1,2,4-triazolo[1,5-a]pyridin-2-yl)]amine], in data set [1], the “inhibition of hERG channel activity” value was “did not inhibit”. Besides, the remaining activity at 3 µM on Flt4_h (3 µM, KM ATP, read-out: % control) stood at 1%; at Ret_V804L_h, 22%; on CK2-alpha2_h, 97%. Moreover, the IC50 against Flt4_h (10-point dose-response, commercial vendor) is 50 nM and 53.9 nM; in data set [2], 1610 ± 410 nM; against KDR, 150 ± 30 nM. The same compound had an exposure producing myelosuppression in data set [3] of 630 µM·h. Besides, in data set [3], the “fold higher exposure producing myelosuppression than R406” value is on record as “approximately 5 fold”.

In general, IC50 refers to the concentration that inhibits the measured activity by half. Read a low IC50 as inhibition by little substance.

For the origin of these results see paper PMC4710522, “A Novel Triazolopyridine-Based Spleen Tyrosine Kinase Inhibitor That Arrests Joint Inflammation” (PLoS ONE, 2016).
